Values quoted from earlier work, collected in patent US8673945B2, “Solid pharmaceutical composition comprising amlodipine and losartan” (Hanmi Science Co., Ltd, priority 2009, dated 2014).

reduction of Cmax of losartan after food ingestion: about 10%
SMILES: CCCCc1nc(Cl)c(CO)n1Cc1ccc(-c2ccccc2-c2nn[nH]n2)cc1 [losartan, 2-butyl-4-chloro-1-[[2′-(1H-tetrazol-5-yl)[1,1′-biphenyl]-4-yl]methyl]-1H-imidazol-5-methanol]
